{
  "source": "the NIST ThermoML archive (doi:10.1016/j.fluid.2008.01.024)",
  "key": {"[1]": {"experiment": "relative permittivity at zero frequency (dimensionless); xn = mol fraction of the nth substance listed", "details": "303.15 K, 101 kPa, Liquid, capacitive measurement method"}, "[2]": {"experiment": "relative permittivity at zero frequency (dimensionless)", "details": "303.15 K; 101 kPa; Liquid; capacitive measurement method"}},
  "note": "Numbers after ± are expanded uncertainties.",
  "data": [
    {"smiles": "CN(C)C=O", "note": "[dimethylformamide] + OCC(O)CO", "values": [
      {"measurement": "relative permittivity at zero frequency", "setting": "[1]; x2 = 0", "value": "36.55 ± 0.22"}
    ]},
    {"smiles": "CN(C)C=O", "note": "[dimethylformamide]", "values": [
      {"measurement": "relative permittivity at zero frequency", "setting": "[2]", "value": "36.55 ± 0.22"}
    ]},
    {"smiles": "NC=O", "note": "[formamide] + OCC(O)CO", "values": [
      {"measurement": "relative permittivity at zero frequency", "setting": "[1]; x2 = 0", "value": "106.14 ± 0.64"},
      {"measurement": "relative permittivity at zero frequency", "setting": "[1]; x2 = 0.037", "value": "103.13 ± 0.62"},
      {"measurement": "relative permittivity at zero frequency", "setting": "[1]; x2 = 0.077", "value": "100.3 ± 0.6"},
      {"measurement": "relative permittivity at zero frequency", "setting": "[1]; x2 = 0.12", "value": "96.91 ± 0.58"},
      {"measurement": "relative permittivity at zero frequency", "setting": "[1]; x2 = 0.165", "value": "93.46 ± 0.56"},
      {"measurement": "relative permittivity at zero frequency", "setting": "[1]; x2 = 0.214", "value": "89.87 ± 0.54"},
      {"measurement": "relative permittivity at zero frequency", "setting": "[1]; x2 = 0.266", "value": "85.74 ± 0.51"},
      {"measurement": "relative permittivity at zero frequency", "setting": "[1]; x2 = 0.322", "value": "81.37 ± 0.49"},
      {"measurement": "relative permittivity at zero frequency", "setting": "[1]; x2 = 0.383", "value": "76.3 ± 0.46"},
      {"measurement": "relative permittivity at zero frequency", "setting": "[1]; x2 = 0.449", "value": "71.94 ± 0.43"},
      {"measurement": "relative permittivity at zero frequency", "setting": "[1]; x2 = 0.521", "value": "66.48 ± 0.4"},
      {"measurement": "relative permittivity at zero frequency", "setting": "[1]; x2 = 0.599", "value": "61.52 ± 0.37"},
      {"measurement": "relative permittivity at zero frequency", "setting": "[1]; x2 = 0.685", "value": "56.42 ± 0.34"},
      {"measurement": "relative permittivity at zero frequency", "setting": "[1]; x2 = 0.779", "value": "50.76 ± 0.3"},
      {"measurement": "relative permittivity at zero frequency", "setting": "[1]; x2 = 0.884", "value": "45.45 ± 0.27"}
    ]},
    {"smiles": "NC=O", "note": "[formamide]", "values": [
      {"measurement": "relative permittivity at zero frequency", "setting": "[2]", "value": "106.14 ± 0.64"}
    ]},
    {"smiles": "CN(C)CCO", "note": "[2-(N,N-dimethylamino)ethanol]", "values": [
      {"measurement": "relative permittivity at zero frequency", "setting": "[2]", "value": "17.18 ± 0.1"}
    ]},
    {"smiles": "CN(C)CCO", "note": "[2-(N,N-dimethylamino)ethanol] + OCC(O)CO", "values": [
      {"measurement": "relative permittivity at zero frequency", "setting": "[1]; x2 = 0", "value": "17.18 ± 0.1"},
      {"measurement": "relative permittivity at zero frequency", "setting": "[1]; x2 = 0.09", "value": "18.66 ± 0.11"},
      {"measurement": "relative permittivity at zero frequency", "setting": "[1]; x2 = 0.175", "value": "20.4 ± 0.12"},
      {"measurement": "relative permittivity at zero frequency", "setting": "[1]; x2 = 0.257", "value": "22.09 ± 0.13"},
      {"measurement": "relative permittivity at zero frequency", "setting": "[1]; x2 = 0.334", "value": "23.83 ± 0.14"},
      {"measurement": "relative permittivity at zero frequency", "setting": "[1]; x2 = 0.409", "value": "25.5 ± 0.15"},
      {"measurement": "relative permittivity at zero frequency", "setting": "[1]; x2 = 0.48", "value": "27.25 ± 0.16"},
      {"measurement": "relative permittivity at zero frequency", "setting": "[1]; x2 = 0.547", "value": "28.98 ± 0.17"},
      {"measurement": "relative permittivity at zero frequency", "setting": "[1]; x2 = 0.612", "value": "30.54 ± 0.18"},
      {"measurement": "relative permittivity at zero frequency", "setting": "[1]; x2 = 0.675", "value": "32.59 ± 0.2"},
      {"measurement": "relative permittivity at zero frequency", "setting": "[1]; x2 = 0.734", "value": "33.74 ± 0.2"},
      {"measurement": "relative permittivity at zero frequency", "setting": "[1]; x2 = 0.792", "value": "35.03 ± 0.21"},
      {"measurement": "relative permittivity at zero frequency", "setting": "[1]; x2 = 0.847", "value": "37.13 ± 0.22"},
      {"measurement": "relative permittivity at zero frequency", "setting": "[1]; x2 = 0.9", "value": "38.63 ± 0.23"},
      {"measurement": "relative permittivity at zero frequency", "setting": "[1]; x2 = 0.951", "value": "39.96 ± 0.24"}
    ]}
  ]
}
